From PubChem BioAssay (NCI)
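The compound was tested at five concentrations on cells cultured in 96-well plates, with a 48-hour exposure period. At the GI50, growth is halved. TGI: concentration producing complete growth inhibition.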

Experiments:
Experiment in all cases: NCI-60 cell line screen, 48 h
UO-31 renal = tested on: UO-31 renal
SNB-19 CNS = tested on: SNB-19 CNS
TK-10 renal = tested on: TK-10 renal
SR leukemia = tested on: SR leukemia
K-562 leukemia = tested on: K-562 leukemia
NCI-H23 lung = tested on: NCI-H23 lung
EKVX NSCLC = tested on: EKVX NSCLC
MDA-MB-435 = tested on: MDA-MB-435
SK-MEL-5 melanoma = tested on: SK-MEL-5 melanoma
KM12 colon = tested on: KM12 colon
SF-295 CNS = tested on: SF-295 CNS
IGROV1 ovarian = tested on: IGROV1 ovarian
SK-OV-3 ovarian = tested on: SK-OV-3 ovarian
OVCAR-3 ovarian = tested on: OVCAR-3 ovarian
OVCAR-5 ovarian = tested on: OVCAR-5 ovarian
UACC-257 melanoma = tested on: UACC-257 melanoma
A549 NSCLC = tested on: A549 NSCLC
SNB-75 CNS = tested on: SNB-75 CNS
HL-60(TB) leukemia = tested on: HL-60(TB) leukemia
UACC-62 melanoma = tested on: UACC-62 melanoma
SN12C renal = tested on: SN12C renal
HOP-92 NSCLC = tested on: HOP-92 NSCLC
MDA-MB-468 breast = tested on: MDA-MB-468 breast
M14 melanoma = tested on: M14 melanoma
HCT-116 colon = tested on: HCT-116 colon
OVCAR-4 ovarian = tested on: OVCAR-4 ovarian
PC-3 prostate = tested on: PC-3 prostate
COLO 205 colon = tested on: COLO 205 colon
HS 578T breast = tested on: HS 578T breast
SF-268 CNS = tested on: SF-268 CNS
U251 CNS = tested on: U251 CNS
RXF 393 renal = tested on: RXF 393 renal
HOP-62 NSCLC = tested on: HOP-62 NSCLC
NCI-H460 lung = tested on: NCI-H460 lung
SK-MEL-28 melanoma = tested on: SK-MEL-28 melanoma
SF-539 CNS = tested on: SF-539 CNS
NCI-H522 lung = tested on: NCI-H522 lung
HT29 colon = tested on: HT29 colon
A498 renal = tested on: A498 renal
BT-549 breast = tested on: BT-549 breast
786-0 renal = tested on: 786-0 renal
T-47D breast = tested on: T-47D breast
LOX IMVI melanoma = tested on: LOX IMVI melanoma
MCF7 breast = tested on: MCF7 breast
RPMI-8226 leukemia = tested on: RPMI-8226 leukemia
HCT-15 colon = tested on: HCT-15 colon
CAKI-1 renal = tested on: CAKI-1 renal
CCRF-CEM leukemia = tested on: CCRF-CEM leukemia
NCI-H226 lung = tested on: NCI-H226 lung
DU-145 prostate = tested on: DU-145 prostate
SK-MEL-2 melanoma = tested on: SK-MEL-2 melanoma
OVCAR-8 ovarian = tested on: OVCAR-8 ovarian
MDA-MB-231 breast = tested on: MDA-MB-231 breast
ACHN renal = tested on: ACHN renal
MOLT-4 leukemia = tested on: MOLT-4 leukemia
HCC-2998 colon = tested on: HCC-2998 colon
SW-620 colon = tested on: SW-620 colon
MALME-3M melanoma = tested on: MALME-3M melanoma

## O=C(c1ccc(Cl)cc1)C1[C@H](c2ccc(Br)cc2)[C@@H](c2ccccc2)NC12C(=O)Nc1ccc(Br)cc12 (stereo partly specified)
UO-31 renal
  GI50: 1.53 µM
  TGI: 6.36 µM
SNB-19 CNS
  GI50: 3.95 µM
  TGI: 10.9 µM
TK-10 renal
  GI50: 3.07 µM
  TGI: 10 µM
SR leukemia
  GI50: 1.03 µM
  TGI: 2.99 µM
K-562 leukemia
  GI50: 1.65 µM
  TGI: 6.45 µM
NCI-H23 lung
  GI50: 1.72 µM
  TGI: 6.78 µM
EKVX NSCLC
  GI50: 1.94 µM
  TGI: 8.07 µM
MDA-MB-435
  GI50: 2.79 µM
  TGI: 9.4 µM
SK-MEL-5 melanoma
  GI50: 6.2 µM
  TGI: 12.6 µM
KM12 colon
  GI50: 1.82 µM
  TGI: 7.45 µM
SF-295 CNS
  GI50: 2.13 µM
  TGI: 8.48 µM
IGROV1 ovarian
  GI50: 2.46 µM
  TGI: 8.43 µM
SK-OV-3 ovarian
  GI50: 5.49 µM
  TGI: 13.1 µM
OVCAR-3 ovarian
  GI50: 2.42 µM
  TGI: 8.6 µM
OVCAR-5 ovarian
  GI50: 3.55 µM
  TGI: 9.88 µM
UACC-257 melanoma
  GI50: 3.29 µM
  TGI: 9.91 µM
A549 NSCLC
  GI50: 1.6 µM
  TGI: 6.03 µM
SNB-75 CNS
  GI50: 1.55 µM
  TGI: 8.89 µM
HL-60(TB) leukemia
  GI50: 1.45 µM
  TGI: 6.79 µM
UACC-62 melanoma
  GI50: 2.94 µM
  TGI: 9.44 µM
SN12C renal
  GI50: 1.04 µM
  TGI: 2.43 µM
HOP-92 NSCLC
  GI50: 1.38 µM
  TGI: 4.1 µM
MDA-MB-468 breast
  GI50: 1.55 µM
  TGI: 7.73 µM
M14 melanoma
  GI50: 1.89 µM
  TGI: 7.61 µM
HCT-116 colon
  GI50: 1.09 µM
  TGI: 2.35 µM
OVCAR-4 ovarian
  GI50: 2.23 µM
  TGI: 9.06 µM
PC-3 prostate
  GI50: 1.65 µM
  TGI: 6.18 µM
COLO 205 colon
  GI50: 0.946 µM
  TGI: 2.08 µM
HS 578T breast
  GI50: 4.15 µM
  TGI: 18.2 µM
SF-268 CNS
  GI50: 1.88 µM
  TGI: 9.16 µM
U251 CNS
  GI50: 1.53 µM
  TGI: 6.07 µM
RXF 393 renal
  GI50: 1.18 µM
  TGI: 3.25 µM
HOP-62 NSCLC
  GI50: 5.17 µM
  TGI: 11.5 µM
NCI-H460 lung
  GI50: 1.07 µM
  TGI: 2.54 µM
SK-MEL-28 melanoma
  GI50: 4.78 µM
  TGI: 10.7 µM
SF-539 CNS
  GI50: 4.67 µM
  TGI: 10.8 µM
NCI-H522 lung
  GI50: 1.42 µM
  TGI: 6.69 µM
HT29 colon
  GI50: 1.19 µM
  TGI: 3.09 µM
A498 renal
  GI50: 5.34 µM
  TGI: 11.6 µM
BT-549 breast
  GI50: 2.47 µM
  TGI: 8.33 µM
786-0 renal
  GI50: 1.34 µM
  TGI: 4.15 µM
T-47D breast
  GI50: 1.74 µM
  TGI: 7.41 µM
LOX IMVI melanoma
  GI50: 0.927 µM
  TGI: 1.99 µM
MCF7 breast
  GI50: 1.48 µM
  TGI: 5.24 µM
RPMI-8226 leukemia
  GI50: 1.45 µM
  TGI: 4.86 µM
HCT-15 colon
  GI50: 1.6 µM
  TGI: 6.07 µM
CAKI-1 renal
  GI50: 1.71 µM
  TGI: 6.79 µM
CCRF-CEM leukemia
  GI50: 1.49 µM
  TGI: 4.98 µM
NCI-H226 lung
  GI50: 1.81 µM
  TGI: 7.96 µM
DU-145 prostate
  GI50: 2.81 µM
  TGI: 9.37 µM
SK-MEL-2 melanoma
  GI50: 5.3 µM
  TGI: 11.5 µM
OVCAR-8 ovarian
  GI50: 1.93 µM
  TGI: 6.97 µM
MDA-MB-231 breast
  GI50: 1.4 µM
  TGI: 4.37 µM
ACHN renal
  GI50: 1.52 µM
  TGI: 5.07 µM
MOLT-4 leukemia
  GI50: 1.39 µM
  TGI: 5.05 µM
HCC-2998 colon
  GI50: 1.62 µM
  TGI: 4.99 µM
SW-620 colon
  GI50: 2.24 µM
  TGI: 8.37 µM
MALME-3M melanoma
  GI50: 4.86 µM
  TGI: 10.7 µM
